Results reported in ChEMBL document CHEMBL1201862, “PubChem BioAssay data set” (2004).
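Five concentrations, 48 hours, 96-well plates. Abbreviation: GI50, concentration required for 50% inhibition of growth.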 Activity calls are given as the source filed them. No stated cut-off is given here; in the data, active = GI50 up to about 1.1 µM and inactive = higher.

Legend:
Experiment in all cases: DTP human tumour cell line panel, 48 h
DMS-114 = tested on: DMS-114
DMS-273 = tested on: DMS-273
KM-20L2 = tested on: KM-20L2
XF498 = tested on: XF498
DLD-1 = tested on: DLD-1
M19-MEL = tested on: M19-MEL
HOP-18 = tested on: HOP-18
SNB-78 = tested on: SNB-78
RXF 631 = tested on: RXF 631

Measured: GI50

O=c1nc(NC(c2ccccc2)(c2ccccc2)c2ccccc2)ccn1CCNCCn1ccc(NC(c2ccccc2)(c2ccccc2)c2ccccc2)nc1=O
inactive: DMS-114 3.23 µM | DMS-273 4.16 µM | KM-20L2 10 µM | XF498 4.11 µM | DLD-1 6.53 µM | M19-MEL 4.46 µM | HOP-18 16.3 µM

CC1CC2C(=O)N(c3ccccc3)C(=O)C2c2c1c1ccccc1n2Cc1ccccc1 (stereo not drawn)
inactive: DMS-114 31 µM | DLD-1 12.5 µM | M19-MEL > 100 µM

C1=C(c2ccccc2)CN(c2ccccc2)OC1
inactive: DMS-273 > 100 µM | KM-20L2 63.5 µM | XF498 > 100 µM | SNB-78 > 100 µM | DLD-1 78.5 µM | M19-MEL 47.5 µM | HOP-18 2.71 µM

CCOc1ccc2c(c1)[n+]([O-])c(-c1ccc(Cl)cc1)c(N)[n+]2[O-]
inactive: DMS-114 68.7 µM | DMS-273 > 100 µM | KM-20L2 > 100 µM | SNB-78 > 100 µM | DLD-1 > 100 µM | HOP-18 > 100 µM

CCOC(=O)CC[C@H](NC(=O)c1nc[nH]c1[N+](=O)[O-])C(=O)OCC
inactive: DMS-114 > 100 µM | DMS-273 > 100 µM | KM-20L2 > 100 µM | SNB-78 > 100 µM | DLD-1 > 100 µM | HOP-18 > 100 µM

CCCCCCCCCCCC(=O)OCC1OC(n2cc(F)c(=O)[nH]c2=O)C(N)C(OC(=O)CCCCCCCCCCC)C1O (stereo not drawn)
inactive: DMS-114 49.5 µM | DMS-273 44.3 µM | KM-20L2 > 100 µM | SNB-78 71.1 µM | M19-MEL > 100 µM

O=C(CCc1nnc(S)[nH]1)Nc1ccccc1Cl
inactive: DMS-114 > 100 µM | DMS-273 > 100 µM | KM-20L2 > 100 µM | XF498 > 100 µM | SNB-78 > 100 µM | DLD-1 > 100 µM | M19-MEL > 100 µM | HOP-18 > 100 µM

N#C/C(c1nc2ccccc2[nH]1)=c1\s/c(=C/c2ccc(Cl)cc2)c(=O)n1-c1ccccc1
inactive: DMS-114 > 100 µM | DMS-273 > 100 µM | KM-20L2 > 100 µM | XF498 > 100 µM | DLD-1 > 100 µM | M19-MEL > 100 µM | HOP-18 > 100 µM

NC(=O)N/N=C(\CCC(=O)N(Cc1ccccc1)Cc1ccccc1)CC(=O)c1ccc(F)cc1
inactive: DMS-114 > 100 µM | RXF 631 > 100 µM | KM-20L2 > 100 µM | SNB-78 > 100 µM | DLD-1 > 100 µM | M19-MEL > 100 µM | HOP-18 > 100 µM

Nc1ccc(C(=O)N/C(=C\c2ccc3c(c2)OCO3)c2nc3ccccc3s2)cc1
inactive: DMS-273 16.8 µM | RXF 631 5.79 µM | KM-20L2 14.8 µM | XF498 12.9 µM | SNB-78 16.7 µM | DLD-1 13 µM | M19-MEL 14.9 µM

O=c1[nH]cc(COCCCO)c(=O)[nH]1
inactive: DMS-273 > 100 µM | KM-20L2 > 100 µM | XF498 > 100 µM | SNB-78 > 100 µM | DLD-1 > 100 µM | M19-MEL > 100 µM | HOP-18 > 100 µM

CCOC(=O)/C(Br)=C1\OC(=O)c2ccccc2-c2ccccc21
inactive: DMS-114 23.1 µM | DMS-273 41.4 µM | RXF 631 33.3 µM | XF498 65.8 µM | SNB-78 29.6 µM | DLD-1 91.6 µM | M19-MEL 51.1 µM | HOP-18 91.8 µM

COc1ccc(OC(=O)N2C/C(=C\c3ccccc3)C(=O)/C(=C/c3ccccc3)C2)cc1
inactive: DMS-273 2.09 µM | KM-20L2 5.42 µM | SNB-78 3.43 µM | DLD-1 1.71 µM | M19-MEL 1.38 µM | HOP-18 16.8 µM

c1ccc2c3c([nH]c2c1)C1(CCCCC1)c1c([nH]c2ccccc12)C31CCCCC1
inactive: DMS-114 31.3 µM | DMS-273 22.3 µM | KM-20L2 36.1 µM | XF498 > 100 µM | SNB-78 18.8 µM | DLD-1 96.2 µM | M19-MEL 46 µM | HOP-18 20.6 µM

O=[N+]([O-])c1ccc(N2C[N+](c3ccccc3)=NC(c3ccccc3)=N2)cc1
inactive: DMS-114 22.5 µM | DMS-273 45.1 µM | KM-20L2 31.9 µM | XF498 21.4 µM | SNB-78 > 100 µM | DLD-1 32.2 µM | M19-MEL 75.3 µM | HOP-18 21.1 µM

O=C(O)CCCCCOc1cccnc1/C=N/NC1=NCCN1
inactive: DMS-273 > 100 µM | KM-20L2 > 100 µM | XF498 91 µM | SNB-78 > 100 µM | DLD-1 > 100 µM | M19-MEL > 100 µM | HOP-18 > 100 µM

COC(=O)C(C(=O)c1ccccc1)C(C(=O)C(=O)Nc1ccc(OC)cc1OC)C(=O)C(=O)c1ccc(C)cc1 (stereo not drawn)
inactive: DMS-114 > 100 µM | DMS-273 > 100 µM | RXF 631 > 100 µM | KM-20L2 > 100 µM | XF498 > 100 µM | SNB-78 > 100 µM | DLD-1 > 100 µM | M19-MEL > 100 µM | HOP-18 > 100 µM

CCO/C([O-])=C(\C(=O)c1ccc([N+](=O)[O-])cc1)[n+]1c(C)n(C)c2ccccc21
inactive: DMS-114 > 100 µM | DMS-273 > 100 µM | KM-20L2 > 100 µM | SNB-78 > 100 µM | DLD-1 > 100 µM | M19-MEL > 100 µM | HOP-18 > 100 µM

O=C(NCCNCCO)c1cccc2ccc(-c3ccccc3)nc12
inactive: DMS-114 7.52 µM | DMS-273 3.86 µM | RXF 631 1.83 µM | SNB-78 9.25 µM | DLD-1 3.41 µM | M19-MEL 4.89 µM | HOP-18 19 µM

OC1OCC(COc2cc(Cl)c(Cl)cc2Cl)OC1O (stereo not drawn)
inactive: DMS-114 28.4 µM | DMS-273 36.4 µM | RXF 631 32.7 µM | KM-20L2 > 100 µM | SNB-78 22.7 µM | DLD-1 44.2 µM | M19-MEL 66.1 µM | HOP-18 25.6 µM

NNC(=O)CCC(=O)NC1C2CC3CC(C2)CC1C3 (stereo not drawn)
inactive: DMS-114 > 100 µM | DMS-273 > 100 µM | KM-20L2 > 100 µM | SNB-78 > 100 µM | DLD-1 > 100 µM | M19-MEL > 100 µM

COc1ccc(OCC(=O)O)c2c1CCC(C(C)C)C2=O (stereo not drawn)
inactive: DMS-114 > 100 µM | DMS-273 > 100 µM | RXF 631 > 100 µM | KM-20L2 > 100 µM | SNB-78 > 100 µM | DLD-1 > 100 µM | M19-MEL > 100 µM | HOP-18 > 100 µM

CC(=O)OCC1OC(OC2CC3C(C)(C)C(OC(C)=O)CC[C@]3(C)C3CCC45CC4(CC[C@H]5C(C)CC(O)[C@@H](O)C(C)(C)O)[C@]23C)C(O)C(O)C1O (stereo partly drawn)
inactive: DMS-273 7.62 µM | KM-20L2 8.05 µM | XF498 19.8 µM | DLD-1 7.41 µM | M19-MEL 7.55 µM | HOP-18 8.61 µM

CC1CC[C@]2(C(=O)O)CCC3(C)C(=CCC4[C@@]5(C)CC[C@H](OS(=O)(=O)c6ccccc6)C(C)(C)C5CC[C@]43C)[C@@H]2[C@H]1C (stereo partly drawn)
inactive: DMS-114 39.2 µM | DMS-273 > 100 µM | RXF 631 > 100 µM | XF498 36.4 µM | SNB-78 > 100 µM | DLD-1 82 µM | M19-MEL > 100 µM | HOP-18 37.9 µM

Cc1nc2ccccc2c(=O)[nH]1
inactive: RXF 631 > 100 µM | KM-20L2 > 100 µM | XF498 > 100 µM | SNB-78 > 100 µM | DLD-1 > 100 µM | M19-MEL > 100 µM | HOP-18 > 100 µM
